Laboratory results: article PMC12325182, “Discovery of novel and potent celastrol derivatives as PRDX1 inhibitors for cancer therapy through structure-based virtual screening” (Frontiers in Pharmacology, 2025)

Assays:
Assay type in all cases: biochemical
[1] = target: other PRDX family members and a panel of kinases; experiment: Kinase selectivity assay (whole panel); conditions: whole panel of Table S1; read-out: IC50 against other PRDX family members and a panel of kinases
Method: (§1) The selectivity of CP1 for PRDX1 was evaluated through kinase selectivity assays against other PRDX family members and a panel of kinases. The experiments were conducted by ICE Biosciences (Beijing, China).

ABL1 = target: T1, ABL1 (Homo sapiens, UniProt P00519); experiment: Kinase selectivity assay; conditions: target ABL1; read-out: CP1 IC50
T1 construct: ICE Biosciences (Beijing, China), ran the assays
Method: as §1

BLK = target: T2, BLK (Homo sapiens, UniProt P51451); experiment: Kinase selectivity assay; conditions: target BLK; read-out: CP1 IC50
T2 construct: ICE Biosciences (Beijing, China), ran the assays
T2 sequence (P51451 whole entry): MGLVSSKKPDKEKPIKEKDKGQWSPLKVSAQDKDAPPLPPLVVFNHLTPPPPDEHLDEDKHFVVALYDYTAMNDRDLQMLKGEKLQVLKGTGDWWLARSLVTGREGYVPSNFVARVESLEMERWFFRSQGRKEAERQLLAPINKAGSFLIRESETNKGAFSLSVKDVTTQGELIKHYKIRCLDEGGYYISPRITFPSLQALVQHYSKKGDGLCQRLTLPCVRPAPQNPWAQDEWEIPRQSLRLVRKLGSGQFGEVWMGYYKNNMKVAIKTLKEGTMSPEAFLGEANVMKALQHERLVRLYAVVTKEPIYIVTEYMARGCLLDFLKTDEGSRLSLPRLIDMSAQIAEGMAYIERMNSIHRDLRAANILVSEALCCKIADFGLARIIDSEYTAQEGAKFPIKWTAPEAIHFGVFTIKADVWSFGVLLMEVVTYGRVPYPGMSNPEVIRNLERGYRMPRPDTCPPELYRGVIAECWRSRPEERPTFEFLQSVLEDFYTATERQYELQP
Method: as §1

BMX = target: T3, BMX (Homo sapiens, UniProt P51813); experiment: Kinase selectivity assay; conditions: target BMX; read-out: CP1 IC50
T3 construct: ICE Biosciences (Beijing, China), ran the assays
Method: as §1

CSF1R = target: T4, CSF1R (Homo sapiens, UniProt P07333); experiment: Kinase selectivity assay; conditions: target CSF1R; read-out: CP1 IC50
T4 construct: ICE Biosciences (Beijing, China), ran the assays
Method: as §1

CSK = target: T5, CSK (Homo sapiens, UniProt P41240); experiment: Kinase selectivity assay; conditions: target CSK; read-out: CP1 IC50
T5 construct: ICE Biosciences (Beijing, China), ran the assays
Method: as §1

EPHA8 = EPHA8 (Homo sapiens, UniProt P29322); experiment: Kinase selectivity assay; conditions: target EPHA8; read-out: CP1 IC50
Method: as §1

EPHB1 = EPHB1 (Homo sapiens, UniProt P54762); experiment: Kinase selectivity assay
Method: as §1

EPHB2 = EPHB2 (Homo sapiens, UniProt P29323); experiment: Kinase selectivity assay; conditions: target EPHB2; read-out: CP1 IC50
Method: as §1

ERBB4 = ERBB4 (Homo sapiens, UniProt Q15303); experiment: Kinase selectivity assay; conditions: target ERBB4; read-out: CP1 IC50
Method: as §1

FER = FER (Homo sapiens, UniProt P16591); experiment: Kinase selectivity assay; conditions: target FER; read-out: CP1 IC50
Method: as §1

FES = target: T6, FES (Homo sapiens, UniProt P07332); experiment: Kinase selectivity assay; conditions: target FES; read-out: CP1 IC50
T6 construct: assay run by ICE Biosciences (Beijing, China)
Method: as §1

FGFR1 = target: T7, FGFR1 (Homo sapiens, UniProt P11362); experiment: Kinase selectivity assay; conditions: target FGFR1; read-out: CP1 IC50
T7 construct: assay run by ICE Biosciences (Beijing, China)
Method: as §1

FGFR2 = target: T8, FGFR2 (Homo sapiens, UniProt P21802); experiment: Kinase selectivity assay; conditions: target FGFR2; read-out: CP1 IC50
T8 construct: assay run by ICE Biosciences (Beijing, China)
Method: as §1

FGFR3 = target: T9, FGFR3 (Homo sapiens, UniProt P22607); experiment: Kinase selectivity assay; conditions: target FGFR3; read-out: CP1 IC50
T9 construct: assay run by ICE Biosciences (Beijing, China)
T9 sequence (P22607 23-806): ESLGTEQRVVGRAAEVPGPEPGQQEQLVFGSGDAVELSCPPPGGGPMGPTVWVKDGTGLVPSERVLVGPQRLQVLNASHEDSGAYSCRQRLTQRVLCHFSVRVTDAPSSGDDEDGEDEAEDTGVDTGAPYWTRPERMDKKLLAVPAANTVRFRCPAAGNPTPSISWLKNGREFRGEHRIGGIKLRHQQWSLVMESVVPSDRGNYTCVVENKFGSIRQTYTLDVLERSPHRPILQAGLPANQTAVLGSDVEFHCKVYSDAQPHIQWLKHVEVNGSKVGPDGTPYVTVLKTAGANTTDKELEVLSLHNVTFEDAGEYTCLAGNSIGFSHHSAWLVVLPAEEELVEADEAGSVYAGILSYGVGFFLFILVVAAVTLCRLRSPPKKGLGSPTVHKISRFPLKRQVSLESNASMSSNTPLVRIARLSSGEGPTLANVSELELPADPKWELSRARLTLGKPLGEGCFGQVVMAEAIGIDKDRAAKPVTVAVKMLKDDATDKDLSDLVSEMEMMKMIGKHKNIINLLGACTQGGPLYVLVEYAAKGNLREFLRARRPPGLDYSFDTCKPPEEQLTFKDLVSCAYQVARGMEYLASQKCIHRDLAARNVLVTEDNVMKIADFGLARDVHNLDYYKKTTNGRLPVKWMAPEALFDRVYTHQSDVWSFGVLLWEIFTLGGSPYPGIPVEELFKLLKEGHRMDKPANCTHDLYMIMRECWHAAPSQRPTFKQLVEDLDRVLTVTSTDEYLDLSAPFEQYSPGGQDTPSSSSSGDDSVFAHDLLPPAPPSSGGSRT
Method: as §1

FGFR4 = target: T10, FGFR4 (Homo sapiens, UniProt P22455); experiment: Kinase selectivity assay; conditions: target FGFR4; read-out: CP1 IC50
T10 construct: assay run by ICE Biosciences (Beijing, China)
T10 sequence (P22455 22-802): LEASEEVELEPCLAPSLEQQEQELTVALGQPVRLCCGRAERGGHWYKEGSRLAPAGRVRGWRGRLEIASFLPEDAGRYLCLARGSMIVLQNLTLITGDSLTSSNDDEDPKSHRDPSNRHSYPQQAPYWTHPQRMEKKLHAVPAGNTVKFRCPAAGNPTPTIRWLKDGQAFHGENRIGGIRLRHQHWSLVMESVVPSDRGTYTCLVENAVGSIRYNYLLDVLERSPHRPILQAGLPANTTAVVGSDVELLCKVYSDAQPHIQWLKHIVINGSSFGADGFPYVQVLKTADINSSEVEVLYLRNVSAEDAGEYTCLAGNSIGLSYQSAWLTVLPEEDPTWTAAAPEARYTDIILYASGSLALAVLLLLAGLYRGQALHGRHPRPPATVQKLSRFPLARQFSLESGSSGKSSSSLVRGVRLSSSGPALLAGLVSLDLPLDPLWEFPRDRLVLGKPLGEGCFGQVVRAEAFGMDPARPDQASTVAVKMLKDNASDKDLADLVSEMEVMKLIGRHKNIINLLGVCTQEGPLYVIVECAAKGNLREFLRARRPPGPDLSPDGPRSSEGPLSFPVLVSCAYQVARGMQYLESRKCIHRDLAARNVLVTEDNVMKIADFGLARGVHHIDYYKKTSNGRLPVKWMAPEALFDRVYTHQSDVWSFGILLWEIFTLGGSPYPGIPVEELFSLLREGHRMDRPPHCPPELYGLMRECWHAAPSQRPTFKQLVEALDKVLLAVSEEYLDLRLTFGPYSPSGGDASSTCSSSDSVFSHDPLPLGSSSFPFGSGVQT
Method: as §1

FGR = target: T11, FGR (Homo sapiens, UniProt P09769); experiment: Kinase selectivity assay; conditions: target FGR; read-out: CP1 IC50
T11 construct: assay run by ICE Biosciences (Beijing, China)
Method: as §1

FLT3 = target: T12, FLT3 (Homo sapiens, UniProt P36888); experiment: Kinase selectivity assay; conditions: target FLT3; read-out: CP1 IC50
T12 construct: assay run by ICE Biosciences (Beijing, China)
Method: as §1

FRK = target: T13, FRK (Homo sapiens, UniProt P42685); experiment: Kinase selectivity assay; conditions: target FRK; read-out: CP1 IC50
T13 construct: assay run by ICE Biosciences (Beijing, China)
T13 sequence (P42685 whole entry): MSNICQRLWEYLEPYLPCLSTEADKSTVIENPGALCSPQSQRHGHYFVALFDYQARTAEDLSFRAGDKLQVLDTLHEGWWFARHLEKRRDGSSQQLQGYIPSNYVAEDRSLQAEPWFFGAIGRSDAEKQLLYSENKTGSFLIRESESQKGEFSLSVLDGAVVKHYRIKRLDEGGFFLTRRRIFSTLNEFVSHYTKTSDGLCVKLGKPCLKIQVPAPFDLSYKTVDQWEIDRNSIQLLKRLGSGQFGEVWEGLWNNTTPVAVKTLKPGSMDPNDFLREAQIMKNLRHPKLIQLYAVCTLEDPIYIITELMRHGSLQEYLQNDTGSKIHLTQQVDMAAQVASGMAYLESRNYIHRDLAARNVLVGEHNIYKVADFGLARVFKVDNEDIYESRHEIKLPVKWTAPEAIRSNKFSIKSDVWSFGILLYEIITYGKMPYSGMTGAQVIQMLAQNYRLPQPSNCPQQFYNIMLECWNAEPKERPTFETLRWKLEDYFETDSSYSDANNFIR
Method: as §1

FYN = target: T14, FYN (Homo sapiens, UniProt P06241); experiment: Kinase selectivity assay; conditions: target FYN; read-out: CP1 IC50
T14 construct: assay run by ICE Biosciences (Beijing, China)
Method: as §1

IGF1R = target: T15, IGF1R (Homo sapiens, UniProt P08069); experiment: Kinase selectivity assay; conditions: target IGF1R; read-out: CP1 IC50
T15 construct: ICE Biosciences (Beijing, China), ran the assays
Method: as §1

JAK1 = JAK1 (Homo sapiens, UniProt P23458); experiment: Kinase selectivity assay; conditions: target JAK1; read-out: CP1 IC50
Chain of JAK1 (P23458 whole entry): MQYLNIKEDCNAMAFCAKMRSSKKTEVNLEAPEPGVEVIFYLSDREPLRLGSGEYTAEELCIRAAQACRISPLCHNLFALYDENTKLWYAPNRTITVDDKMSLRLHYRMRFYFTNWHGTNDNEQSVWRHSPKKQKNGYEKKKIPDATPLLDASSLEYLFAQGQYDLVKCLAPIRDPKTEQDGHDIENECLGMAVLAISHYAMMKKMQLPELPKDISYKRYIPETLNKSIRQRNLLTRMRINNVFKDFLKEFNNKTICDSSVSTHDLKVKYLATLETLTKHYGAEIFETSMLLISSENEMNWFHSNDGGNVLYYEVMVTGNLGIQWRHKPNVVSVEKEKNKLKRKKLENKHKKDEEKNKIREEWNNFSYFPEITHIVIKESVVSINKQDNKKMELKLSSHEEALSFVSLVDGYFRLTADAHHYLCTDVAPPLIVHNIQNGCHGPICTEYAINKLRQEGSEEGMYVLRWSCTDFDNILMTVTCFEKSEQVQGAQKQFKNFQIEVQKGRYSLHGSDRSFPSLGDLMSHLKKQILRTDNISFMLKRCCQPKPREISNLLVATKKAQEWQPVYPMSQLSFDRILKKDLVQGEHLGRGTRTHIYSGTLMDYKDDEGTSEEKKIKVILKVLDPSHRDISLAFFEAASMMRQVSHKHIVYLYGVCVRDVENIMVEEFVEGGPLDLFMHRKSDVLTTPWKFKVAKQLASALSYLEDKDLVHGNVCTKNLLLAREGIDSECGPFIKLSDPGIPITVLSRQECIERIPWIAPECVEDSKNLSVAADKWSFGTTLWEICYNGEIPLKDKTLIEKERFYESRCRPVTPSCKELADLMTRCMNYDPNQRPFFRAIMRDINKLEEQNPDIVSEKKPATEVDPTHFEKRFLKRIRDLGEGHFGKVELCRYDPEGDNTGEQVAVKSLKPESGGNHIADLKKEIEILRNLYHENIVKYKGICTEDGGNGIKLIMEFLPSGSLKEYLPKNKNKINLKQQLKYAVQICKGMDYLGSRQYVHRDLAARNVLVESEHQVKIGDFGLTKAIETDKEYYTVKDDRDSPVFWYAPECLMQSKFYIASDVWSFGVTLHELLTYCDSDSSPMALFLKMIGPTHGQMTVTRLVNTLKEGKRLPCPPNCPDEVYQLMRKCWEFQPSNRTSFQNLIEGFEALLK
Method: as §1

LYN = LYN (Homo sapiens, UniProt P07948); experiment: Kinase selectivity assay; conditions: target LYN; read-out: CP1 IC50
Method: as §1

MERTK = MERTK (Homo sapiens, UniProt Q12866); experiment: Kinase selectivity assay; conditions: target MERTK; read-out: CP1 IC50
Method: as §1

NTRK1 = NTRK1 (Homo sapiens, UniProt P04629); experiment: Kinase selectivity assay
Method: as §1

NTRK3 = target: T16, NTRK3 (Homo sapiens, UniProt Q16288); experiment: Kinase selectivity assay
T16 construct: assay run by ICE Biosciences (Beijing, China)
Method: as §1

PRDX2 = target: T17, PRDX2 (Homo sapiens, UniProt P32119); experiment: Kinase selectivity assay; conditions: target PRDX2; read-out: CP1 IC50
T17 construct: ICE Biosciences (Beijing, China), ran the assays
Method: as §1

PRDX4 = target: T18, PRDX4 (Homo sapiens, UniProt Q13162); experiment: Kinase selectivity assay; conditions: target PRDX4; read-out: CP1 IC50
T18 construct: ICE Biosciences (Beijing, China), ran the assays
T18 sequence (Q13162 38-271): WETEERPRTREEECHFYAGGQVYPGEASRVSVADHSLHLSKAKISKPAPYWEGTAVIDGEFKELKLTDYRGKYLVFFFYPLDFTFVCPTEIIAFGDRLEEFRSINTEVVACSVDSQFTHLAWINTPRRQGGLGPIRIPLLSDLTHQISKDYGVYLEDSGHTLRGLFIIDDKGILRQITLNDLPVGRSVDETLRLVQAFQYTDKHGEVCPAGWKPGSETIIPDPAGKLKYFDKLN
Method: as §1

PRDX6 = target: T19, PRDX6 (Homo sapiens, UniProt P30041); experiment: Kinase selectivity assay
T19 construct: ICE Biosciences (Beijing, China), ran the assays
Method: as §1

PTK2 = target: T20, PTK2 (Homo sapiens, UniProt Q05397); experiment: Kinase selectivity assay; conditions: target PTK2; read-out: CP1 IC50
T20 construct: assay run by ICE Biosciences (Beijing, China)
T20 sequence (Q05397 whole entry): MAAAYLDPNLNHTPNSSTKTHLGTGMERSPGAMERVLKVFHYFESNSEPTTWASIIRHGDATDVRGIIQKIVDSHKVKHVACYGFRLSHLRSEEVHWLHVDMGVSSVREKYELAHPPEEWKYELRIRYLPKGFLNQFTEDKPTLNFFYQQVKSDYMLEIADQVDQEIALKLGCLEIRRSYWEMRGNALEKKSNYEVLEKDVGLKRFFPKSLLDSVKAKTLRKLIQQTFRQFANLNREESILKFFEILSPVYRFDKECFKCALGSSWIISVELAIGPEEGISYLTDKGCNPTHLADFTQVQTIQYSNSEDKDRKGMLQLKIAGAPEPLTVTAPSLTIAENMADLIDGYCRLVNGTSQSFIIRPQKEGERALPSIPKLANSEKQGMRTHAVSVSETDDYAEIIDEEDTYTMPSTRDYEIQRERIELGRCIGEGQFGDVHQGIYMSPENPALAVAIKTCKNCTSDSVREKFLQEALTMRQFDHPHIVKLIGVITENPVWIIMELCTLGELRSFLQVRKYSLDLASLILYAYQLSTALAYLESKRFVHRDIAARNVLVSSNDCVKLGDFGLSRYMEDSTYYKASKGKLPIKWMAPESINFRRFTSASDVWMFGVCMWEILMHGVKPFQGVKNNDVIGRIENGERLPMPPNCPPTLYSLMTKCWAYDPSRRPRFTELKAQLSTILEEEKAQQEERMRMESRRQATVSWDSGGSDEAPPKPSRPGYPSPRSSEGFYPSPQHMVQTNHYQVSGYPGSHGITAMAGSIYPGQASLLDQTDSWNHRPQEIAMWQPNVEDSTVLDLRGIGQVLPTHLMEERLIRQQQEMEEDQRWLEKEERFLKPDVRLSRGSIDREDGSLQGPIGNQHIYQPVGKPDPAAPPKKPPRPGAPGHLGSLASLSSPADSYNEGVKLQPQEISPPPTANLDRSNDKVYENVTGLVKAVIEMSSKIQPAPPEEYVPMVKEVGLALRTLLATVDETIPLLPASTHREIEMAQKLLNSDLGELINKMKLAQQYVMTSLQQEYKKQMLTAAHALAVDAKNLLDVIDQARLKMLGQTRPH
Method: as §1

TEC = target: T21, TEC (Homo sapiens, UniProt P42680); experiment: Kinase selectivity assay; conditions: target TEC; read-out: CP1 IC50
T21 construct: assay run by ICE Biosciences (Beijing, China)
Method: as §1

TNK2 = target: T22, TNK2 (Homo sapiens, UniProt Q07912); experiment: Kinase selectivity assay; conditions: target TNK2; read-out: CP1 IC50
T22 construct: assay run by ICE Biosciences (Beijing, China)
Method: as §1

TXK = target: T23, TXK (Homo sapiens, UniProt P42681); experiment: Kinase selectivity assay; conditions: target TXK; read-out: CP1 IC50
T23 construct: ICE Biosciences (Beijing, China), a contract laboratory that ran the assay
Method: as §1

TYK2 = target: T24, TYK2 (Homo sapiens, UniProt P29597); experiment: Kinase selectivity assay; conditions: target TYK2; read-out: CP1 IC50
T24 construct: ICE Biosciences (Beijing, China), a contract laboratory that ran the assay
Method: as §1

Measured: IC50

CC1=C(CC(=O)/C=C/c2cccc(CO)c2)C(=O)C=C2C1=CC=C1[C@@]2(C)CC[C@@]2(C)C3C[C@](C)(C(=O)CCc4nc(C(O)C(O)O)c(C)nc4C)CC[C@]3(C)CC[C@]12C (stereo partly shown) [CP1]
> 30 µM: all assays above
